# Biological target: T1, hTAS1R1 H308A/rTAS1R3 (Homo sapiens, UniProt Q7RTX1, H308A)
# T1 construct: UniProtKB number Q7RTX1–1); expressed in transfected cells; host or cells: HEK293T/17 (ATCC CRL-11268)
# T1 sequence (Q7RTX1 21-841 H308A): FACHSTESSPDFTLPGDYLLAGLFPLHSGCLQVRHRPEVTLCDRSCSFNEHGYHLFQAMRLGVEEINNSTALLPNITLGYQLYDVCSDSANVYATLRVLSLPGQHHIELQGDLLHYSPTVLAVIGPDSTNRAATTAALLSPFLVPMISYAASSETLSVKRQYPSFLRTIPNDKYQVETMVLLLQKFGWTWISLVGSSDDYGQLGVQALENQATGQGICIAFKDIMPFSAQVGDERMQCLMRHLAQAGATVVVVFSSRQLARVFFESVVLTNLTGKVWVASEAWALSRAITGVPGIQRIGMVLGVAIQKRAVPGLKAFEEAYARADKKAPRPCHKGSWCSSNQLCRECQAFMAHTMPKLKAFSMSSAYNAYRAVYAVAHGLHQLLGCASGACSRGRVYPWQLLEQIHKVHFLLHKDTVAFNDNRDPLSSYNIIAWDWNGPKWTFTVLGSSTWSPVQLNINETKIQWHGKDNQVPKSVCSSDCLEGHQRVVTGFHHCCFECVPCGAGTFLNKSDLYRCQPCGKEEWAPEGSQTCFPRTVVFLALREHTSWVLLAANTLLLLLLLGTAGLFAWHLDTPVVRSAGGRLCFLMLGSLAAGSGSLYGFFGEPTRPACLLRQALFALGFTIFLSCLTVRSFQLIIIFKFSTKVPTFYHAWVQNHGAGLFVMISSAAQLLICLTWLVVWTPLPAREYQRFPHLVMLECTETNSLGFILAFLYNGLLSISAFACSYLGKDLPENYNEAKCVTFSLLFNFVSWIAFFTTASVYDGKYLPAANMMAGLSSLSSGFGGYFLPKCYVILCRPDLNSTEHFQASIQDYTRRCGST
# T1 sequence (Q923K1 21-858 partner): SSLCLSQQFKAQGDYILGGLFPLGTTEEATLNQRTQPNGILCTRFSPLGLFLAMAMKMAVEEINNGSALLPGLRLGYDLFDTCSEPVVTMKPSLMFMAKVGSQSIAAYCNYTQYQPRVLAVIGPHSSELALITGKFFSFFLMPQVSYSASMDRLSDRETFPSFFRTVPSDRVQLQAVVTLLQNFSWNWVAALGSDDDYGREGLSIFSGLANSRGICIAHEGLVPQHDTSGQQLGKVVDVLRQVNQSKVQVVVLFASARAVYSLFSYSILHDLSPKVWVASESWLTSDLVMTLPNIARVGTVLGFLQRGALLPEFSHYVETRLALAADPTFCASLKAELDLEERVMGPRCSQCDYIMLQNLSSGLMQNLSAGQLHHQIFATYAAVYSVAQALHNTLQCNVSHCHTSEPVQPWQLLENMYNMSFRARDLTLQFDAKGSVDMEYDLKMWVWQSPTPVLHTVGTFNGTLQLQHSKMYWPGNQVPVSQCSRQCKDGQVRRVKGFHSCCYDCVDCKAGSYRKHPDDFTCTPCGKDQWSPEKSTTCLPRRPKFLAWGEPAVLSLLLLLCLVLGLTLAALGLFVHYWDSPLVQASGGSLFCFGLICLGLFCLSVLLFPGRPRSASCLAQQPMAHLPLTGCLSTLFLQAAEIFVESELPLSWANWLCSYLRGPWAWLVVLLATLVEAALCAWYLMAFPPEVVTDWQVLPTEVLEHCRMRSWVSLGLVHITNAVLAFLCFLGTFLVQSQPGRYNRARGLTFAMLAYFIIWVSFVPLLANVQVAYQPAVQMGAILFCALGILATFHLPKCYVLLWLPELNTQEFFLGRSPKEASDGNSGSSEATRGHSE
# Assay: Calcium assay, hTAS1R1 mutant co-expressed with rTAS1R3
# Type: cell-based, rat
"response to the agonist alone, vs WT (H308A)",SMILES,EC50 [mM],effect of the added compound (1 mM) on the response to L-Glu (H308A),"Max ∆F/F0 (H308A, GSH)","R1 = mutant EC50/WT EC50 (H308A, GSH)"
–,"N[C@@H](CCC(=O)N[C@@H](CS)C(=O)NCC(=O)O)C(=O)O [GSH, γ-L-glutamyl-L-cysteinyl-glycine]",3.25 ± 0.225,synergy was observed,0.42 ± 0.01,1.3
strongly affected,"CCCC(CCC)NC(=O)c1ccc2c(c1)OCO2 [S807, N-(heptan-4-yl)benzo[d][1,3]dioxole-5-carboxamide, reference compound]",–,–,–,–

# Source: article PMC12615753, “Glutathione as a taste modulator: molecular mechanisms of interaction with umami and sweet taste receptors” (Food Chemistry: Molecular Sciences, 2025)
